Source: ChEMBL document CHEMBL3045535, “Evaluation of lufenuron as a chemosterilant against fruit flies of the genus Anastrepha (Diptera: Tephritidae)” (2010)
The source made the active and inactive calls. The rule behind the calls is not given here.

How the values were obtained:
Anastrepha ludens [1] = experiment: Reduction of fertility in 7 days old adult of Anastrepha ludens assessed as reduction of egg hatching at 10 mg/g treated with diet measured after 11 days oviposition; assay type: functional; parameters: scale not given: the % may be the effect or the level left
Anastrepha ludens [2] = experiment: Reduction of fertility in 7 days old adult of Anastrepha ludens assessed as reduction of egg hatching at 10 mg/g treated with diet measured after 9 days oviposition; assay type: functional; parameters: scale not given: the % may be the effect or the level left
Anastrepha ludens [3] = experiment: Reduction of fertility in 7 days old adult of Anastrepha ludens assessed as reduction of egg hatching at 10 mg/g treated with diet measured after 5 days oviposition; assay type: functional; parameters: scale not given: the % may be the effect or the level left
Anastrepha ludens [4] = experiment: Reduction of fertility in 7 days old adult of Anastrepha ludens assessed as reduction of egg hatching at 10 mg/g treated with diet measured after 1 day oviposition; assay type: functional; parameters: scale not given: the % may be the effect or the level left
Anastrepha ludens [5] = experiment: Reduction of fertility in 7 days old adult of Anastrepha ludens assessed as reduction of egg hatching at 5 mg/g treated with diet measured after 5 days oviposition; assay type: functional; parameters: scale not given: the % may be the effect or the level left
Anastrepha ludens [6] = experiment: Reduction of fertility in 7 days old adult of Anastrepha ludens assessed as reduction of egg hatching at 5 mg/g treated with diet measured after 1 day oviposition; assay type: functional; parameters: scale not given: the % may be the effect or the level left
Anastrepha ludens [7] = experiment: Reduction of fertility in 7 days old adult of Anastrepha ludens assessed as reduction of egg hatching at 1 mg/g treated with diet measured after 9 days oviposition; assay type: functional; parameters: scale not given: the % may be the effect or the level left
Anastrepha ludens [8] = experiment: Reduction of fertility in 7 days old adult of Anastrepha ludens assessed as reduction of egg hatching at 0.1 mg/g treated with diet measured after 5 days oviposition; assay type: functional; parameters: scale not given: the % may be the effect or the level left
Anastrepha obliqua [9] = experiment: Reduction of fertility in 7 days old adult of Anastrepha obliqua assessed as reduction of egg hatching at 10 mg/g treated with diet measured after 1 day oviposition; assay type: functional; parameters: scale not given: the % may be the effect or the level left
Anastrepha obliqua [10] = experiment: Reduction of fertility in 7 days old adult of Anastrepha obliqua assessed as reduction of egg hatching at 5 mg/g treated with diet measured after 11 days oviposition; assay type: functional; parameters: scale not given: the % may be the effect or the level left
Anastrepha obliqua [11] = experiment: Reduction of fertility in 7 days old adult of Anastrepha obliqua assessed as reduction of egg hatching at 5 mg/g treated with diet measured after 7 days oviposition; assay type: functional; parameters: scale not given: the % may be the effect or the level left
Anastrepha obliqua [12] = experiment: Reduction of fertility in 7 days old adult of Anastrepha obliqua assessed as reduction of egg hatching at 5 mg/g treated with diet measured after 3 days oviposition; assay type: functional; parameters: scale not given: the % may be the effect or the level left
Anastrepha obliqua [13] = experiment: Reduction of fertility in 7 days old adult of Anastrepha obliqua assessed as reduction of egg hatching at 1 mg/g treated with diet measured after 11 days oviposition; assay type: functional; parameters: scale not given: the % may be the effect or the level left
Anastrepha ludens [14] = experiment: Reduction of fertility in 7 days old adult of Anastrepha ludens assessed as reduction of egg hatching at 1 mg/g treated with diet measured after 1 day oviposition; assay type: functional; parameters: scale not given: the % may be the effect or the level left
Anastrepha ludens [15] = experiment: Reduction of fertility in 7 days old adult of Anastrepha ludens assessed as reduction of egg hatching at 0.5 mg/g treated with diet measured after 11 days oviposition; assay type: functional; parameters: scale not given: the % may be the effect or the level left
Anastrepha ludens [16] = experiment: Reduction of fertility in 7 days old adult of Anastrepha ludens assessed as reduction of egg hatching at 0.5 mg/g treated with diet measured after 7 days oviposition; assay type: functional; parameters: scale not given: the % may be the effect or the level left
Anastrepha ludens [17] = experiment: Reduction of fertility in 7 days old adult of Anastrepha ludens assessed as reduction of egg hatching at 0.1 mg/g treated with diet measured after 11 days oviposition; assay type: functional; parameters: scale not given: the % may be the effect or the level left
Anastrepha serpentina [18] = experiment: Reduction of fertility in 7 days old adult of Anastrepha serpentina assessed as reduction of egg hatching at 0.5 mg/g treated with diet measured after 3 days oviposition; assay type: functional; parameters: scale not given: the % may be the effect or the level left
Anastrepha serpentina [19] = experiment: Reduction of fertility in 7 days old adult of Anastrepha serpentina assessed as reduction of egg hatching at 0.5 mg/g treated with diet measured after 1 day oviposition; assay type: functional; parameters: scale not given: the % may be the effect or the level left
Anastrepha serpentina [20] = experiment: Reduction of fertility in 7 days old adult of Anastrepha serpentina assessed as reduction of egg hatching at 0.1 mg/g treated with diet measured after 5 days oviposition; assay type: functional; parameters: scale not given: the % may be the effect or the level left
Anastrepha obliqua [21] = experiment: Reduction of fertility in 7 days old adult of Anastrepha obliqua assessed as reduction of egg hatching at 30 mg/g treated with diet measured after 7 days oviposition; assay type: functional; parameters: scale not given: the % may be the effect or the level left
Anastrepha obliqua [22] = experiment: Reduction of fertility in 7 days old adult of Anastrepha obliqua assessed as reduction of egg hatching at 10 mg/g treated with diet measured after 9 days oviposition; assay type: functional; parameters: scale not given: the % may be the effect or the level left
Anastrepha obliqua [23] = experiment: Reduction of fertility in 7 days old adult of Anastrepha obliqua assessed as reduction of egg hatching at 1 mg/g treated with diet measured after 3 days oviposition; assay type: functional; parameters: scale not given: the % may be the effect or the level left
Anastrepha obliqua [24] = experiment: Reduction of fertility in 7 days old adult of Anastrepha obliqua assessed as reduction of egg hatching at 0.5 mg/g treated with diet measured after 9 days oviposition; assay type: functional; parameters: scale not given: the % may be the effect or the level left
Anastrepha obliqua [25] = experiment: Reduction of fertility in 7 days old adult of Anastrepha obliqua assessed as reduction of egg hatching at 0.1 mg/g treated with diet measured after 3 days oviposition; assay type: functional; parameters: scale not given: the % may be the effect or the level left
Anastrepha ludens [26] = experiment: Reduction of fertility in 7 days old adult of Anastrepha ludens assessed as reduction of egg hatching at 30 mg/g treated with diet measured after 5 days oviposition; assay type: functional; parameters: scale not given: the % may be the effect or the level left
Anastrepha ludens [27] = experiment: Reduction of fertility in 7 days old adult of Anastrepha ludens assessed as reduction of egg hatching at 30 mg/g treated with diet measured after 3 days oviposition; assay type: functional; parameters: scale not given: the % may be the effect or the level left
Anastrepha striata [28] = experiment: Reduction of fertility in 7 days old adult of Anastrepha striata assessed as reduction of egg hatching at 1 mg/g treated with diet measured after 9 days oviposition; assay type: functional; parameters: scale not given: the % may be the effect or the level left
Anastrepha striata [29] = experiment: Reduction of fertility in 7 days old adult of Anastrepha striata assessed as reduction of egg hatching at 0.5 mg/g treated with diet measured after 9 days oviposition; assay type: functional; parameters: scale not given: the % may be the effect or the level left
Anastrepha serpentina [30] = experiment: Reduction of fertility in 7 days old adult of Anastrepha serpentina assessed as reduction of egg hatching at 0.5 mg/g treated with diet measured after 11 days oviposition; assay type: functional; parameters: scale not given: the % may be the effect or the level left
Anastrepha striata [31] = experiment: Reduction of fertility in 7 days old adult of Anastrepha striata assessed as reduction of egg hatching at 0.1 mg/g treated with diet measured after 7 days oviposition; assay type: functional; parameters: scale not given: the % may be the effect or the level left
Anastrepha serpentina [32] = experiment: Reduction of fertility in 7 days old adult of Anastrepha serpentina assessed as reduction of egg hatching at 30 mg/g treated with diet measured after 9 days oviposition; assay type: functional; parameters: scale not given: the % may be the effect or the level left
Anastrepha serpentina [33] = experiment: Reduction of fertility in 7 days old adult of Anastrepha serpentina assessed as reduction of egg hatching at 30 mg/g treated with diet measured after 7 days oviposition; assay type: functional; parameters: scale not given: the % may be the effect or the level left
Anastrepha serpentina [34] = experiment: Reduction of fertility in 7 days old adult of Anastrepha serpentina assessed as reduction of egg hatching at 5 mg/g treated with diet measured after 9 days oviposition; assay type: functional; parameters: scale not given: the % may be the effect or the level left
Anastrepha serpentina [35] = experiment: Reduction of fertility in 7 days old adult of Anastrepha serpentina assessed as reduction of egg hatching at 1 mg/g treated with diet measured after 11 days oviposition; assay type: functional; parameters: scale not given: the % may be the effect or the level left
Anastrepha serpentina [36] = experiment: Reduction of fertility in 7 days old adult of Anastrepha serpentina assessed as reduction of egg hatching at 1 mg/g treated with diet measured after 1 day oviposition; assay type: functional; parameters: scale not given: the % may be the effect or the level left
Anastrepha striata [37] = experiment: Reduction of fertility in 7 days old adult of Anastrepha striata assessed as reduction of egg hatching at 10 mg/g treated with diet measured after 7 days oviposition; assay type: functional; parameters: scale not given: the % may be the effect or the level left
Anastrepha striata [38] = experiment: Reduction of fertility in 7 days old adult of Anastrepha striata assessed as reduction of egg hatching at 5 mg/g treated with diet measured after 5 days oviposition; assay type: functional; parameters: scale not given: the % may be the effect or the level left
Anastrepha ludens [39] = experiment: Effect on fertility in 7 days old adult male of Anastrepha ludens at 30 mg/g treated with diet after 24 hr in presence of untreated adult female of Anastrepha ludens; assay type: functional, organism-based
Anastrepha striata [40] = experiment: Effect on fertility in 7 days old adult female of Anastrepha striata at 30 mg/g treated with diet after 24 hr in presence of untreated adult male of Anastrepha striata; assay type: functional, organism-based
Anastrepha striata [41] = experiment: Effect on fecundity in 7 days old adult female of Anastrepha striata at 30 mg/g treated with diet after 24 hr in presence of untreated adult male of Anastrepha striata; assay type: functional, organism-based

O=C(NC(=O)c1c(F)cccc1F)Nc1cc(Cl)c(OC(F)(F)C(F)C(F)(F)F)cc1Cl (racemic) [LUFENURON]
Activity (Anastrepha ludens [1]): 16.7%
Activity (Anastrepha ludens [2]): 14.7%
Activity (Anastrepha ludens [3]): 2.7%
Activity (Anastrepha ludens [4]): 6%
Activity (Anastrepha ludens [5]): 20%
Activity (Anastrepha ludens [6]): 19.3%
Activity (Anastrepha ludens [7]): 20%
Activity (Anastrepha ludens [8]): 30.7%
Activity (Anastrepha obliqua [9]): 0%
Activity (Anastrepha obliqua [10]): 0%
Activity (Anastrepha obliqua [11]): 0%
Activity (Anastrepha obliqua [12]): 2.7%
Activity (Anastrepha obliqua [13]): 0.7%
Activity (Anastrepha ludens [14]): 8%
Activity (Anastrepha ludens [15]): 26.7%
Activity (Anastrepha ludens [16]): 12%
Activity (Anastrepha ludens [17]): 66.7%
Activity (Anastrepha serpentina [18]): 87.3%
Activity (Anastrepha serpentina [19]): 88.3%
Activity (Anastrepha serpentina [20]): 74.6%
Activity (Anastrepha obliqua [21]): 0.7%
Activity (Anastrepha obliqua [22]): 0%
Activity (Anastrepha obliqua [23]): 0%
Activity (Anastrepha obliqua [24]): 4.7%
Activity (Anastrepha obliqua [25]): 7.3%
Activity (Anastrepha ludens [26]): 4%
Activity (Anastrepha ludens [27]): 2.7%
Activity (Anastrepha striata [28]): 4.7%
Activity (Anastrepha striata [29]): 40.7%
Activity (Anastrepha serpentina [30]): 86%
Activity (Anastrepha striata [31]): 72%
Activity (Anastrepha serpentina [32]): 76.7%
Activity (Anastrepha serpentina [33]): 54.2%
Activity (Anastrepha serpentina [34]): 83.3%
Activity (Anastrepha serpentina [35]): 91.2%
Activity (Anastrepha serpentina [36]): 42.7%
Activity (Anastrepha striata [37]): 0%
Activity (Anastrepha striata [38]): 2.7%
Activity (Anastrepha ludens [39]): inactive
Activity (Anastrepha striata [40]): inactive
Activity (Anastrepha striata [41]): inactive
